Patent US20060069132A1, “Azolecarboxamide herbicides” (priority 2004, published 2006)

Key:
Test in all cases: Test E pre-/postemergence herbicide test
Surinam grass = format: in vivo, Urochloa decumbens
Outline: (§1)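 In this greenhouse assay, compounds in a solvent vehicle containing surfactant were applied pre- and postemergence, the latter to plants 2 to 18 cm high. Control was judged by eye after 12 to 14 days on a 0 to 100 scale.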

tropical spiderwort = format: in vivo, Commelina benghalensis
Outline: as §1

common chickweed = format: in vivo, Stellaria media
Outline: as §1

barnyardgrass = format: in vivo, Echinochloa crus-galli
Outline: as §1

johnsongrass = format: in vivo, Sorghum halepense
Outline: as §1

common purslane = format: in vivo, Portulaca oleracea; conditions: Preemergence
Text: (§2) Seeds of plant species selected from bipinnate beggarticks (Bidens bipinnata L.), hairy beggarticks (Bidens radiata Thuill.), bermudagrass (Cynodon dactylon (L.) Pers.), Surinam grass (Urochloa decumbens (Staph) R. D. Webster, previously named Brachiaria decumbens Stapf), large crabgrass (Digitaria sanguinalis (L.) Scop.), green foxtail (Setaria viridis (L.) P. Beauv.), goosegrass (Eleusine indica (L.) Gaertn.), johnsongrass (Sorghum halepense (L.) Pers.), kochia (Kochia scoparia (L.) Schrad.), pitted morningglory (Ipomoea lacunosa L.), purple nutsedge (Cyperus rotundus L.), common ragweed (Ambrosia elatior L.), mustard (Brassica nigra (L.) W. D. J. Koch), guineagrass (Panicum maximum Jacq.), dallisgrass (Paspalum dilatatum Poir.), barnyardgrass (Echinochloa crus-galli (L). P. Beauv.), southern sandbur (Cenchrus echinatus L.), common sowthistle (Sonchus oleraceous L.), prickly sida (Sida spinosa L.), Italian ryegrass (Lolium multiflorum Lam.), common purslane (Portulaca oleracea L.), broadleaf signalgrass (Brachiaria platyphylla (Griseb.) Nash), common groundsel (Senecio vulgaris L.), common chickweed (Stellaria media (L.) Vill/Cyr.), tropical spiderwort (Commelina benghalensis L.), annual bluegrass (Poa annua L.), downy bromegrass (Bromus tectorum L.), itchgrass (Rottboellia cochinchinensis (L.) L.f.), quackgrass (Elytrigia repens (L.) Nevski), Canada horseweed (Erigeron Canadensis L.), field bindweed (Convolvulus arvensis L.), spotted spurge (Euphorbia maculata L.), common mallow (Malva sylvestris (=s silvestris) L.), and Russian thistle (Salsola kali L. ssp. Ruthenica (Iljin) Soo) were planted and treated preemergence with test chemicals formulated in a non-phytotoxic solvent mixture which included a surfactant.
(§3) At the same time, plants selected from these weed species were treated with postemergence applications of some of the test chemicals formulated in the same manner. Plants ranged in height from 2 to 18 cm (1- to 4-leaf stage) for postemergence treatments. Treated plants and controls were maintained in a greenhouse for 12 to 14 days, after which time all species were compared to controls and visually evaluated. Plant response ratings, summarized in Table E, are based on a scale of 0 to 100 where 0 is no effect and 100 is complete control. A dash (-) response means no test result.

purple nutsedge = format: in vivo, Cyperus rotundus
Outline: as §1

mustard = format: in vivo, Brassica nigra
Outline: as §1

quackgrass = format: in vivo, Elytrigia repens
Outline: as §1

broadleaf signalgrass = format: in vivo, Brachiaria platyphylla
Outline: as §1

common groundsel = format: in vivo, Senecio vulgaris
Text: as §2, §3

[1] = Postemergence, 250 g ai/ha, scale 0 to 100
[2] = Preemergence, 62 g ai/ha, scale 0 to 100
[3] = Preemergence, 125 g ai/ha, scale 0 to 100
[4] = Preemergence, 250 g ai/ha, scale 0 (no effect) to 100 (complete control)
[5] = Preemergence, 500 g ai/ha, scale 0 (no effect) to 100 (complete control)
[6] = postemergence, 125 g ai/ha, scale 0 to 100
[7] = postemergence, 62 g ai/ha, scale 0 to 100
[8] = Preemergence, 125 g ai/ha, scale 0 (no effect) to 100 (complete control)
[9] = 250 g ai/ha, scale 0 (no effect) to 100 (complete control)
[10] = 500 g ai/ha, scale 0 (no effect) to 100 (complete control)
[11] = Postemergence, 500 g ai/ha, scale 0 to 100

CCNC(=O)c1ccc(F)c(NC(=O)c2cc(C(C)(C)C)nn2CC)c1 [Compound 2, 3-(1,1-dimethylethyl)-1-ethyl-N-[5-[(ethylamino)carbonyl]-2-fluorophenyl]-1H-pyrazole-5-carboxamide]
Plant response rating, Surinam Grass (Surinam grass; [1]): 100 | Plant response rating, Surinam Grass (Surinam grass; [2]): 60 | Plant response rating, Surinam Grass (Surinam grass; [3]): 80 | Plant response rating, Surinam Grass (Surinam grass; [4]): 80 | Plant response rating, Surinam Grass (Surinam grass; [5]): 90 | Plant response rating, Surinam Grass (Surinam grass; [6]): 90 | Plant response rating, Surinam Grass (Surinam grass; [7]): 75 | Plant response rating, Spiderwort (tropical spiderwort; [1]): 70 | Plant response rating, Spiderwort (tropical spiderwort; [2]): 20 | Plant response rating, Spiderwort (tropical spiderwort; [8]): 60 | Plant response rating, Spiderwort (tropical spiderwort; [4]): 70 | Plant response rating, Spiderwort (tropical spiderwort; [5]): 100 | Plant response rating, Spiderwort (tropical spiderwort; [7]): 20 | Plant response rating, Chickweed (common chickweed; [2]): 90 | Plant response rating, Chickweed (common chickweed; [8]): 90 | Plant response rating, Chickweed (common chickweed; [4]): 95 | Plant response rating, Chickweed (common chickweed; [5]): 95 | Plant response rating, Chickweed (common chickweed; [6]): 100 | Plant response rating, Barnyardgrass (barnyardgrass; [1]): 95 | Plant response rating, Barnyardgrass (barnyardgrass; [2]): 60 | Plant response rating, Barnyardgrass (barnyardgrass; [8]): 80 | Plant response rating, Barnyardgrass (barnyardgrass; [4]): 100 | Plant response rating, Barnyardgrass (barnyardgrass; [5]): 100 | Plant response rating, Barnyardgrass (barnyardgrass; [6]): 90 | Plant response rating, Barnyardgrass (barnyardgrass; [7]): 80 | Plant response rating, Johnsongrass (johnsongrass; [1]): 100 | Plant response rating, Johnsongrass (johnsongrass; [2]): 90 | Plant response rating, Johnsongrass (johnsongrass; [8]): 90 | Plant response rating, Johnsongrass (johnsongrass; [4]): 100 | Plant response rating, Johnsongrass (johnsongrass; [5]): 100 | Plant response rating, Johnsongrass (johnsongrass; [6]): 90 | Plant response rating, Johnsongrass (johnsongrass; [7]): 80 | Plant response rating, Purslane (common purslane; 125 g ai/ha, scale 0 (no effect) to 100 (complete control)): 100 | Plant response rating, Purslane (common purslane; [9]): 100 | Plant response rating, Purslane (common purslane; [10]): 100 | Plant response rating, Nutsedge, Purple (purple nutsedge; [5]): 95 | Plant response rating, Black Mustard (mustard; [1]): 100 | Plant response rating, Black Mustard (mustard; [2]): 60 | Plant response rating, Black Mustard (mustard; [8]): 100 | Plant response rating, Black Mustard (mustard; [4]): 100 | Plant response rating, Black Mustard (mustard; [5]): 100 | Plant response rating, Black Mustard (mustard; [6]): 95 | Plant response rating, Black Mustard (mustard; [7]): 90 | Plant response rating, Quackgrass (quackgrass; [1]): 95 | Plant response rating, Quackgrass (quackgrass; [2]): 30 | Plant response rating, Quackgrass (quackgrass; [8]): 60 | Plant response rating, Quackgrass (quackgrass; [4]): 70 | Plant response rating, Quackgrass (quackgrass; [5]): 80 | Plant response rating, Quackgrass (quackgrass; [6]): 90 | Plant response rating, Quackgrass (quackgrass; [7]): 70 | Plant response rating, Signalgrass (broadleaf signalgrass; [1]): 85 | Plant response rating, Signalgrass (broadleaf signalgrass; [2]): 50 | Plant response rating, Signalgrass (broadleaf signalgrass; [8]): 70 | Plant response rating, Signalgrass (broadleaf signalgrass; [4]): 75 | Plant response rating, Signalgrass (broadleaf signalgrass; [5]): 90 | Plant response rating, Signalgrass (broadleaf signalgrass; [6]): 80 | Plant response rating, Signalgrass (broadleaf signalgrass; [7]): 30 | Plant response rating, Groundsel (common groundsel; [1]): 80 | Plant response rating, Groundsel (common groundsel; [2]): 60 | Plant response rating, Groundsel (common groundsel; [8]): 70 | Plant response rating, Groundsel (common groundsel; [4]): 100 | Plant response rating, Groundsel (common groundsel; [5]): 100

CCn1nc(C(C)(C)C)cc1C(=O)Nc1cccc(C(N)=O)n1 [Compound 162, 6-[[[3-(1,1-dimethylethyl)-1-ethyl-1H-pyrazol-5-yl]carbonyl]amino]-2-pyridinecarboxamide]
Plant response rating, Surinam Grass (Surinam grass; [11]): 100 | Plant response rating, Surinam Grass (Surinam grass; [1]): 98 | Plant response rating, Surinam Grass (Surinam grass; [2]): 60 | Plant response rating, Surinam Grass (Surinam grass; [3]): 75 | Plant response rating, Surinam Grass (Surinam grass; [5]): 100 | Plant response rating, Surinam Grass (Surinam grass; [6]): 90 | Plant response rating, Surinam Grass (Surinam grass; [7]): 50 | Plant response rating, Spiderwort (tropical spiderwort; [11]): 65 | Plant response rating, Spiderwort (tropical spiderwort; [1]): 60 | Plant response rating, Spiderwort (tropical spiderwort; [2]): 20 | Plant response rating, Spiderwort (tropical spiderwort; [3]): 40 | Plant response rating, Spiderwort (tropical spiderwort; [4]): 75 | Plant response rating, Spiderwort (tropical spiderwort; [5]): 75 | Plant response rating, Spiderwort (tropical spiderwort; [6]): 10 | Plant response rating, Spiderwort (tropical spiderwort; [7]): 0 | Plant response rating, Chickweed (common chickweed; [1]): 100 | Plant response rating, Chickweed (common chickweed; [3]): 95 | Plant response rating, Chickweed (common chickweed; [4]): 95 | Plant response rating, Chickweed (common chickweed; [5]): 95 | Plant response rating, Chickweed (common chickweed; [6]): 100 | Plant response rating, Chickweed (common chickweed; [7]): 80 | Plant response rating, Barnyardgrass (barnyardgrass; [11]): 95 | Plant response rating, Barnyardgrass (barnyardgrass; [1]): 90 | Plant response rating, Barnyardgrass (barnyardgrass; [2]): 60 | Plant response rating, Barnyardgrass (barnyardgrass; [3]): 100 | Plant response rating, Barnyardgrass (barnyardgrass; [4]): 100 | Plant response rating, Barnyardgrass (barnyardgrass; [5]): 100 | Plant response rating, Barnyardgrass (barnyardgrass; [6]): 80 | Plant response rating, Barnyardgrass (barnyardgrass; [7]): 60 | Plant response rating, Johnsongrass (johnsongrass; [11]): 100 | Plant response rating, Johnsongrass (johnsongrass; [1]): 100 | Plant response rating, Johnsongrass (johnsongrass; [2]): 60 | Plant response rating, Johnsongrass (johnsongrass; [3]): 100 | Plant response rating, Johnsongrass (johnsongrass; [4]): 100 | Plant response rating, Johnsongrass (johnsongrass; [5]): 100 | Plant response rating, Johnsongrass (johnsongrass; [6]): 80 | Plant response rating, Johnsongrass (johnsongrass; [7]): 65 | Plant response rating, Purslane (common purslane; 62 g ai/ha, scale 0 to 100): 100 | Plant response rating, Purslane (common purslane; 125 g ai/ha, scale 0 to 100): 100 | Plant response rating, Purslane (common purslane; [9]): 100 | Plant response rating, Purslane (common purslane; [10]): 100 | Plant response rating, Nutsedge, Purple (purple nutsedge; [1]): 75 | Plant response rating, Nutsedge, Purple (purple nutsedge; [2]): 0 | Plant response rating, Black Mustard (mustard; [11]): 95 | Plant response rating, Black Mustard (mustard; [1]): 90 | Plant response rating, Black Mustard (mustard; [2]): 20 | Plant response rating, Black Mustard (mustard; [3]): 50 | Plant response rating, Black Mustard (mustard; [4]): 80 | Plant response rating, Black Mustard (mustard; [5]): 100 | Plant response rating, Black Mustard (mustard; [6]): 75 | Plant response rating, Black Mustard (mustard; [7]): 60 | Plant response rating, Quackgrass (quackgrass; [11]): 95 | Plant response rating, Quackgrass (quackgrass; [1]): 90 | Plant response rating, Quackgrass (quackgrass; [2]): 20 | Plant response rating, Quackgrass (quackgrass; [3]): 60 | Plant response rating, Quackgrass (quackgrass; [4]): 75 | Plant response rating, Quackgrass (quackgrass; [5]): 90 | Plant response rating, Quackgrass (quackgrass; [6]): 70 | Plant response rating, Quackgrass (quackgrass; [7]): 50 | Plant response rating, Signalgrass (broadleaf signalgrass; [11]): 90 | Plant response rating, Signalgrass (broadleaf signalgrass; [1]): 80 | Plant response rating, Signalgrass (broadleaf signalgrass; [3]): 70 | Plant response rating, Signalgrass (broadleaf signalgrass; [4]): 100 | Plant response rating, Signalgrass (broadleaf signalgrass; [5]): 100 | Plant response rating, Signalgrass (broadleaf signalgrass; [6]): 70 | Plant response rating, Signalgrass (broadleaf signalgrass; [7]): 30 | Plant response rating, Groundsel (common groundsel; [11]): 100 | Plant response rating, Groundsel (common groundsel; [1]): 80 | Plant response rating, Groundsel (common groundsel; [2]): 10 | Plant response rating, Groundsel (common groundsel; [3]): 40 | Plant response rating, Groundsel (common groundsel; [4]): 80 | Plant response rating, Groundsel (common groundsel; [5]): 100 | Plant response rating, Groundsel (common groundsel; [6]): 30 | Plant response rating, Groundsel (common groundsel; [7]): 20
